Data reported in the NIST ThermoML archive (doi:10.1016/j.jct.2016.10.016).
± gives the expanded uncertainty stated by the source.

Test: mn = molality of the nth substance listed, in mol/kg
Details: 101.3 kPa, Liquid

## COC(=O)[C@H](C)N.Cl [methyl L-alaninate hydrochloride] + O
278.15 K, Frequency=2 MHz, Linear variable-path acoustic interferometer, m1 = 0.0501
  speed of sound: 1432 ± 2 m/s
278.15 K, Frequency=2 MHz, Linear variable-path acoustic interferometer, m1 = 0.0614
  speed of sound: 1432.9 ± 2 m/s
278.15 K, Frequency=2 MHz, Linear variable-path acoustic interferometer, m1 = 0.0701
  speed of sound: 1433.8 ± 2 m/s
278.15 K, Frequency=2 MHz, Linear variable-path acoustic interferometer, m1 = 0.082
  speed of sound: 1435.4 ± 2 m/s
278.15 K, Frequency=2 MHz, Linear variable-path acoustic interferometer, m1 = 0.091
  speed of sound: 1437.2 ± 2 m/s
278.15 K, Frequency=2 MHz, Linear variable-path acoustic interferometer, m1 = 0.1004
  speed of sound: 1437.6 ± 2 m/s
278.15 K, Frequency=2 MHz, Linear variable-path acoustic interferometer, m1 = 0.1099
  speed of sound: 1438.9 ± 2 m/s
278.15 K, Frequency=2 MHz, Linear variable-path acoustic interferometer, m1 = 0.1219
  speed of sound: 1440 ± 2 m/s
278.15 K, Frequency=2 MHz, Linear variable-path acoustic interferometer, m1 = 0.1296
  speed of sound: 1441.4 ± 2 m/s
278.15 K, Frequency=2 MHz, Linear variable-path acoustic interferometer, m1 = 0.1411
  speed of sound: 1442.6 ± 2 m/s
278.15 K, Frequency=2 MHz, Linear variable-path acoustic interferometer, m1 = 0.1515
  speed of sound: 1443.6 ± 2 m/s
278.15 K, Frequency=2 MHz, Linear variable-path acoustic interferometer, m1 = 0.1618
  speed of sound: 1444.4 ± 2 m/s
278.15 K, Pycnometric method, m1 = 0.0501
  mass density: 1001.79 ± 0.28 kg/m3
278.15 K, Pycnometric method, m1 = 0.0614
  mass density: 1002.2 ± 0.28 kg/m3
278.15 K, Pycnometric method, m1 = 0.0701
  mass density: 1002.52 ± 0.28 kg/m3
278.15 K, Pycnometric method, m1 = 0.082
  mass density: 1002.95 ± 0.28 kg/m3
278.15 K, Pycnometric method, m1 = 0.091
  mass density: 1003.28 ± 0.29 kg/m3
278.15 K, Pycnometric method, m1 = 0.1004
  mass density: 1003.62 ± 0.29 kg/m3
278.15 K, Pycnometric method, m1 = 0.1099
  mass density: 1003.97 ± 0.29 kg/m3
278.15 K, Pycnometric method, m1 = 0.1219
  mass density: 1004.4 ± 0.29 kg/m3
278.15 K, Pycnometric method, m1 = 0.1296
  mass density: 1004.68 ± 0.3 kg/m3
278.15 K, Pycnometric method, m1 = 0.1411
  mass density: 1005.1 ± 0.3 kg/m3
278.15 K, Pycnometric method, m1 = 0.1515
  mass density: 1005.48 ± 0.3 kg/m3
278.15 K, Pycnometric method, m1 = 0.1618
  mass density: 1005.86 ± 0.3 kg/m3
288.15 K, Frequency=3 MHz, Sing-around technique in a fixed-path interferometer, m1 = 0.0502
  speed of sound: 1470.7 ± 1.2 m/s
288.15 K, Frequency=3 MHz, Sing-around technique in a fixed-path interferometer, m1 = 0.0601
  speed of sound: 1471.8 ± 1.2 m/s
288.15 K, Frequency=3 MHz, Sing-around technique in a fixed-path interferometer, m1 = 0.07
  speed of sound: 1473.1 ± 1.2 m/s
288.15 K, Frequency=3 MHz, Sing-around technique in a fixed-path interferometer, m1 = 0.0801
  speed of sound: 1474.1 ± 1.2 m/s
288.15 K, Frequency=3 MHz, Sing-around technique in a fixed-path interferometer, m1 = 0.0901
  speed of sound: 1475.2 ± 1.2 m/s
288.15 K, Frequency=3 MHz, Sing-around technique in a fixed-path interferometer, m1 = 0.1003
  speed of sound: 1476.3 ± 1.2 m/s
288.15 K, Frequency=3 MHz, Sing-around technique in a fixed-path interferometer, m1 = 0.1101
  speed of sound: 1477.1 ± 1.2 m/s
288.15 K, Frequency=3 MHz, Sing-around technique in a fixed-path interferometer, m1 = 0.1202
  speed of sound: 1477.8 ± 1.2 m/s
288.15 K, Frequency=3 MHz, Sing-around technique in a fixed-path interferometer, m1 = 0.13
  speed of sound: 1478.9 ± 1.3 m/s
288.15 K, Frequency=3 MHz, Sing-around technique in a fixed-path interferometer, m1 = 0.1401
  speed of sound: 1480 ± 1.3 m/s
288.15 K, Frequency=3 MHz, Sing-around technique in a fixed-path interferometer, m1 = 0.1504
  speed of sound: 1481.1 ± 1.3 m/s
288.15 K, Frequency=3 MHz, Sing-around technique in a fixed-path interferometer, m1 = 0.1603
  speed of sound: 1482.2 ± 1.3 m/s
288.15 K, Vibrating tube method, m1 = 0.0502
  mass density: 1000.8 ± 0.11 kg/m3
288.15 K, Vibrating tube method, m1 = 0.0601
  mass density: 1001.13 ± 0.11 kg/m3
288.15 K, Vibrating tube method, m1 = 0.07
  mass density: 1001.47 ± 0.12 kg/m3
288.15 K, Vibrating tube method, m1 = 0.0801
  mass density: 1001.8 ± 0.12 kg/m3
288.15 K, Vibrating tube method, m1 = 0.0901
  mass density: 1002.14 ± 0.12 kg/m3
288.15 K, Vibrating tube method, m1 = 0.1003
  mass density: 1002.49 ± 0.13 kg/m3
288.15 K, Vibrating tube method, m1 = 0.1101
  mass density: 1002.82 ± 0.13 kg/m3
288.15 K, Vibrating tube method, m1 = 0.1202
  mass density: 1003.16 ± 0.13 kg/m3
288.15 K, Vibrating tube method, m1 = 0.13
  mass density: 1003.49 ± 0.14 kg/m3
288.15 K, Vibrating tube method, m1 = 0.1401
  mass density: 1003.83 ± 0.14 kg/m3
288.15 K, Vibrating tube method, m1 = 0.1504
  mass density: 1004.18 ± 0.15 kg/m3
288.15 K, Vibrating tube method, m1 = 0.1603
  mass density: 1004.51 ± 0.15 kg/m3
298.15 K, Frequency=3 MHz, Sing-around technique in a fixed-path interferometer, m1 = 0.0486
  speed of sound: 1500.6 ± 1.2 m/s
298.15 K, Frequency=3 MHz, Sing-around technique in a fixed-path interferometer, m1 = 0.0601
  speed of sound: 1502.2 ± 1.2 m/s
298.15 K, Frequency=3 MHz, Sing-around technique in a fixed-path interferometer, m1 = 0.0697
  speed of sound: 1503 ± 1.2 m/s
298.15 K, Frequency=3 MHz, Sing-around technique in a fixed-path interferometer, m1 = 0.0819
  speed of sound: 1503.6 ± 1.2 m/s
298.15 K, Frequency=3 MHz, Sing-around technique in a fixed-path interferometer, m1 = 0.0899
  speed of sound: 1504.7 ± 1.2 m/s
298.15 K, Frequency=3 MHz, Sing-around technique in a fixed-path interferometer, m1 = 0.0963
  speed of sound: 1505.2 ± 1.2 m/s
298.15 K, Frequency=3 MHz, Sing-around technique in a fixed-path interferometer, m1 = 0.11
  speed of sound: 1506.4 ± 1.2 m/s
298.15 K, Frequency=3 MHz, Sing-around technique in a fixed-path interferometer, m1 = 0.1184
  speed of sound: 1507.1 ± 1.2 m/s
298.15 K, Frequency=3 MHz, Sing-around technique in a fixed-path interferometer, m1 = 0.1302
  speed of sound: 1508 ± 1.2 m/s
298.15 K, Frequency=3 MHz, Sing-around technique in a fixed-path interferometer, m1 = 0.1401
  speed of sound: 1508.9 ± 1.3 m/s
298.15 K, Frequency=3 MHz, Sing-around technique in a fixed-path interferometer, m1 = 0.1507
  speed of sound: 1509.8 ± 1.2 m/s
298.15 K, Frequency=3 MHz, Sing-around technique in a fixed-path interferometer, m1 = 0.1601
  speed of sound: 1510.3 ± 1.2 m/s
298.15 K, Vibrating tube method, m1 = 0.0486
  mass density: 998.75 ± 0.11 kg/m3
298.15 K, Vibrating tube method, m1 = 0.0601
  mass density: 999.01 ± 0.11 kg/m3
298.15 K, Vibrating tube method, m1 = 0.0697
  mass density: 999.32 ± 0.11 kg/m3
298.15 K, Vibrating tube method, m1 = 0.0819
  mass density: 999.68 ± 0.12 kg/m3
298.15 K, Vibrating tube method, m1 = 0.0899
  mass density: 999.97 ± 0.12 kg/m3
298.15 K, Vibrating tube method, m1 = 0.0963
  mass density: 1000.19 ± 0.12 kg/m3
298.15 K, Vibrating tube method, m1 = 0.11
  mass density: 1000.61 ± 0.13 kg/m3
298.15 K, Vibrating tube method, m1 = 0.1184
  mass density: 1000.89 ± 0.13 kg/m3
298.15 K, Vibrating tube method, m1 = 0.1302
  mass density: 1001.2 ± 0.13 kg/m3
298.15 K, Vibrating tube method, m1 = 0.1401
  mass density: 1001.54 ± 0.15 kg/m3
298.15 K, Vibrating tube method, m1 = 0.1507
  mass density: 1001.93 ± 0.14 kg/m3
298.15 K, Vibrating tube method, m1 = 0.1601
  mass density: 1002.17 ± 0.13 kg/m3

## O [water] + COC(=O)[C@@H](N)C(C)C.Cl
278.15 K, Frequency=2 MHz, Linear variable-path acoustic interferometer, m2 = 0
  speed of sound: 1426.2 ± 2 m/s
278.15 K, Pycnometric method, m2 = 0
  mass density: 999.96 ± 0.28 kg/m3
